pIC50: −log10 of the molar value.

Broadly, the melting point is the temperature of the solid-liquid transition. One may read the pIC50 as the IC50 on a negative log10 scale, so that one unit is a factor of ten. Low values mean a high IC50, high ones a low IC50.

System in the first data set: not given
Test: not given
Settings: not given
With `CNC(=O)c1c(-c2ccc(Nc3ccc(C(C)C)cc3)cc2)oc2cc(N(CCO)S(C)(=O)=O)c(OC)cc12` [Compound I-6], the melting point fell in the range of 223.9 to 234.5 °C.

The compound `CNC(=O)c1c(-c2ccc(Oc3ccc(F)cc3)cc2)oc2cc(N(CCO)S(C)(=O)=O)c(C3CC3)cc12` [Compound I-32, 5-Cyclopropyl-2-[4-(4-fluoro-phenoxy)-phenyl]-6-[(2-hydroxy-ethyl)-methanesulfonyl-amino]-benzofuran-3-carboxylic acid methylamide] had a melting point of 110 to 115 °C.

For the next data set, the target named is T1, HCV polymerase (NS5B570n-Con1) (Hepatitis C virus genotype 1b, UniProt Q9WMX2).
T1 construct: contains a 21 amino acid deletion at the C-terminus relative to the full-length HCV polymerase; 6-histidine (N); made in house; host or cells: E. coli BL21 (DE) pLysS
The experiment in a line: HCV NS5B RNA polymerase activity assay. It is filed as biochemical, HCV Con1 strain. Particulars: IC50 NS5B polymerase assay, Table I. On the procedure:
The enzymatic activity of HCV polymerase (NS5B570n-Con1) was measured as the incorporation of radiolabeled nucleotide monophosphates into acid insoluble RNA products. Unincorporated radiolabeled substrate was removed by filtration and scintillant was added to the washed and dried filter plate containing radiolabeled RNA product. The amount of RNA product generated by NS5B570-Con1 at the end of the reaction was directly proportional to the amount of light emitted by the scintillant.
The N-terminal 6-histidine tagged HCV polymerase, derived from HCV Con1 strain, genotype 1b (NS5B570n-Con1) contains a 21 amino acid deletion at the C-terminus relative to the full-length HCV polymerase and was purified from E. coli strain BL21 (DE) pLysS. The construct, containing the coding sequence of HCV NS5B Con1 (GenBank accession number AJ242654) was inserted into the plasmid construct pETI 7b, downstream of a T7 promoter expression cassette and transformed into E. coli. A single colony was grown overnight as a starter culture and later used inoculate 10 L of LB media supplemented with 100 μg/mL ampicillin at 37° C. Protein expression was induced by the addition of 0.25 mM isopropyl-β-D-thiogalactopyranoside (IPTG) when optical density at […] of the culture was between 0.6 and 0.8 and cells were harvested after 16 to 18 h at 30° C. NS5B570n-Con1 was purified to homogeneity using a three-step protocol including subsequent column chromatography on Ni-NTA, SP-Sepharose HP and Superdex 75 resins.
Each 50 μl enzymatic reaction contained 20 nM RNA template derived from the complementary sequence of the Internal Ribosome Entry Site (cIRES), 20 nM NS5B570n-Con1 enzyme, 0.5 μCi of tritiated UTP (Perkin Elmer catalog no. TRK-412; specific activity: 30 to 60 Ci/mmol; stock solution concentration from 7.5×10^-5 M to 20.6×10^-6 M), 1 μM each ATP, CTP, and GTP, 40 mM Tris-HCl pH 8.0, 40 mM NaCl, 4 mM DTT (dithiothreitol), 4 mM MgCl2, and 5 μl of compound serial diluted in DMSO. Reaction mixtures were assembled in 96-well filter plates (cat #MADVN0B, Millipore Co.) and incubated for 2 h at 30° C. Reactions were stopped by addition of 10% final (v/v) trichloroacetic acid and incubated for 40 min at 4° C. Reactions were filtered, washed with 8 reaction volumes of 10% (v/v) trichloroacetic acetic acid, 4 reaction volumes of 70% (v/v) ethanol, air dried, and 25 μl of scintillant (Microscint 20, Perkin-Elmer) was added to each reaction well.
The amount of light emitted from the scintillant was converted to counts per minute (CPM) on a Topcount® plate reader (Perkin-Elmer, Energy Range: Low, Efficiency Mode Normal, Count Time: 1 min, Background Subtract: none, Cross talk reduction: Off).
Data was analyzed in Excel® (Microsoft®) and ActivityBase® (idbsg). The reaction in the absence of enzyme was used to determine the background signal, which was subtracted from the enzymatic reactions. Positive control reactions were performed in the absence of compound, from which the background corrected activity was set as 100% polymerase activity. All data was expressed as a percentage of the positive control. The compound concentration at which the enzyme-catalyzed rate of RNA synthesis was reduced by 50% (IC50) was calculated by fitting
[formula] equation (t) to the data.where “Y” corresponds to the relative enzyme activity (in %), “% Min” is the residual relative activity at saturating compound concentration, “% Max” is the relative maximum enzymatic activity, “X” corresponds to the compound concentration, and “S” is the Hill coefficient (or slope).
For the compound `CNC(=O)c1c(-c2ccc(Nc3ccc(C(C)C)cc3)cc2)oc2cc(N(CCO)S(C)(=O)=O)c(OC)cc12` [Compound I-6], the pIC50 is 6.26.

Compound `CNC(=O)c1c(-c2ccc(Oc3ccc(F)cc3)cc2)oc2cc(N(CCO)S(C)(=O)=O)c(C3CC3)cc12` [Compound I-32, 5-Cyclopropyl-2-[4-(4-fluoro-phenoxy)-phenyl]-6-[(2-hydroxy-ethyl)-methanesulfonyl-amino]-benzofuran-3-carboxylic acid methylamide] had a negative logarithm of the IC50 (pIC50) of 7.22.

`CNC(=O)c1c(-c2ccc(Oc3ccc(F)cc3)cc2)oc2cc(N(CCCC#N)S(C)(=O)=O)c(C3CC3)cc12` [Compound I-96] gave a pIC50 of 8.15.

For the compound `CNC(=O)c1c(-c2ccc(Oc3ccc(F)cc3)cc2)oc2cc(N(CC(O)CN)S(C)(=O)=O)c(C3CC3)cc12` (stereo not drawn) [Compound I-97, 6-[(3-Amino-2-hydroxy-propyl)-methanesulfonyl-amino]-5-cyclopropyl-2-[4-(4-fluoro-phenoxy)-phenyl]-benzofuran-3-carboxylic acid methylamide], the pIC50 was 7.32.

Turning to `CNC(=O)c1c(-c2ccc(Oc3ccc(F)cc3)cc2)oc2cc(N(C3CCC(N)CC3)S(C)(=O)=O)c(C3CC3)cc12` (stereo not drawn) [Compound I-98, 6-[(4-Amino-cyclohexyl)-methanesulfonyl-amino]-5-cyclopropyl-2-[4-(4-fluoro-phenoxy)-phenyl]-benzofuran-3-carboxylic acid methylamide], the pIC50 is 7.36.

The compound `CNC(=O)c1c(-c2ccc(Oc3ccc(F)cc3)cc2)oc2cc(N([C@H]3CC[C@@H](O)CC3)S(C)(=O)=O)c(C3CC3)cc12` [Compound I-99] gave a pIC50 of 7.64.

`CNC(=O)c1c(-c2ccc(Oc3ccc(F)cc3)cc2)oc2cc(N([C@H]3CC[C@H](O)CC3)S(C)(=O)=O)c(C3CC3)cc12` [Compound I-100] showed a pIC50 of 7.60.

As to `CNC(=O)c1c(-c2ccc(Oc3ccccc3)cc2)oc2cc(-c3c(C)n[nH]c3C)c(C3CC3)cc12` [Compound I-101], the negative logarithm of the IC50 (pIC50) is 6.50.

For the compound `CNC(=O)c1c(-c2ccc(Oc3ccc(F)cc3)cc2)oc2cc(C(C)(C)O)c(OC)cc12` [Compound I-103], the pIC50 was 7.43.

`CNC(=O)c1c(-c2ccc(Oc3ccc(F)cc3)cc2)oc2cc(N(CCCO)S(C)(=O)=O)c(C3CC3)cc12` [Compound I-106] had a pIC50 of 7.74.

`CNC(=O)c1c(-c2ccc(Oc3ccc(F)cc3)cc2)oc2cc(N(CC3COC(=O)N3)S(C)(=O)=O)c(C3CC3)cc12` (stereo not drawn) [Compound I-108] had a pIC50 of 7.59.

Regarding `CNC(=O)c1c(-c2ccc(Oc3ccc(F)cc3)cc2)oc2cc(C3CCCN3C(C)=O)c(OC)cc12` (stereo not drawn) [Compound I-109, 6-(1-acetyl-pyrrolidin-2-yl)-2-[4-(4-fluoro-phenoxy)-phenyl]-5-methoxy-benzofuran-3-carboxylic acid methylamide], the pIC50 is 7.36.

`CNC(=O)c1c(-c2ccc(Oc3ccc(F)cc3)cc2)oc2cc(C(C)(C)O)c(C3CC3)cc12` [Compound I-110, 5-Cyclopropyl-2-[4-(4-fluoro-phenoxy)-phenyl]-6-(1-hydroxy-1-methyl-ethyl)-benzofuran-3-carboxylic acid methylamide] showed a pIC50 of 7.41.

Compound `CNC(=O)c1c(-c2ccc(Oc3ccc(F)cc3)cc2)oc2cc(C3CCCN3)c(OC)cc12` (stereo not drawn) [Compound I-111, 2-[4-(4-Fluoro-phenoxy)-phenyl]-5-methoxy-6-pyrrolidin-2-yl-benzofuran-3-carboxylic acid methylamide] gave a pIC50 of 6.03.

The compound `CNC(=O)c1c(-c2ccc(Oc3ccc(F)cc3)cc2)oc2cc(C3CCCN3S(C)(=O)=O)c(OC)cc12` (stereo not drawn) [Compound I-112, 2-[4-(4-Fluoro-phenoxy)-phenyl]-6-(1-methanesulfonyl-pyrrolidin-2-yl)-5-methoxy-benzofuran-3-carboxylic acid methylamide] gave a negative logarithm of the IC50 (pIC50) of 6.46.

`CNC(=O)c1c(-c2ccc(Oc3ccc(F)cc3)cc2)oc2cc(N(CCCSC)S(C)(=O)=O)c(C3CC3)cc12` [Compound I-113] gave a pIC50 of 7.74.

As to `CNC(=O)c1c(-c2ccc(Oc3ccc(F)cc3)cc2)oc2cc(N(CCCS(C)(=O)=O)S(C)(=O)=O)c(C3CC3)cc12` [Compound I-114], the pIC50 is 7.68.

`CNC(=O)c1c(-c2ccc(Oc3ccc(F)cc3)cc2)oc2cc(N(CC(F)(F)CN)S(C)(=O)=O)c(C3CC3)cc12` [Compound I-115, 6-[(3-Amino-2,2-difluoro-propyl)-methanesulfonyl-amino]-5-cyclopropyl-2-[4-(4-fluoro-phenoxy)-phenyl]-benzofuran-3-carboxylic acid methylamide]: the pIC50 was 7.54.

For `CNC(=O)c1c(-c2ccc(Oc3ccc(F)cc3)cc2)oc2cc(N(CCCN(C)S(C)(=O)=O)S(C)(=O)=O)c(C3CC3)cc12` [Compound I-117], the pIC50 was 7.96.

`CNC(=O)c1c(-c2ccc(Oc3ccc(F)cc3)cc2)oc2cc(N(CCCS(N)(=O)=O)S(C)(=O)=O)c(C3CC3)cc12` [Compound I-118] showed a pIC50 of 8.15.

In the case of `CNC(=O)c1c(-c2ccc(Oc3ccc(F)cc3)cc2)oc2cc(N(CCS(N)(=O)=O)S(C)(=O)=O)c(C3CC3)cc12` [Compound I-119, 5-Cyclopropyl-2-[4-(4-fluoro-phenoxy)-phenyl]-6-[methanesulfonyl-(2-sulfamoyl-ethyl)-amino]-benzofuran-3-carboxylic acid methylamide], the negative-log IC50 (pIC50) was 7.85.

For `CNC(=O)c1c(-c2ccc(Oc3ccc(F)cc3)cc2)oc2cc(N(CC[S+](C)[O-])S(C)(=O)=O)c(C3CC3)cc12` (stereo not drawn) [Compound I-120, 5-Cyclopropyl-2-[4-(4-fluoro-phenoxy)-phenyl]-6-[(2-methanesulfinyl-ethyl)-methanesulfonyl-amino]-benzofuran-3-carboxylic acid methylamide], the pIC50 was 7.72.

The compound `CNC(=O)c1c(-c2ccc(Oc3ccc(F)cc3)cc2)oc2cc(N(CCC[S+](C)[O-])S(C)(=O)=O)c(C3CC3)cc12` (stereo not drawn) [Compound I-121] showed a pIC50 of 8.30.

`CNC(=O)c1c(-c2ccc(Nc3cccnc3)cc2)oc2cc(N(CCO)S(C)(=O)=O)c(OC)cc12` [Compound I-122] gave a pIC50 of 5.69.

The compound `CNC(=O)c1c(-c2ccc(Nc3ccc(F)cn3)cc2)oc2cc(N(CCO)S(C)(=O)=O)c(OC)cc12` [Compound I-124] gave a negative logarithm of the IC50 (pIC50) of 6.71.

`CNC(=O)c1c(-c2ccc(Oc3ccc(F)cc3)nc2)oc2cc(N(CCO)S(C)(=O)=O)c(OC)cc12` [Compound I-125, 2-[6-(4-Fluoro-phenoxy)-pyridin-3-yl]-6-[(2-hydroxy-ethyl)-methanesulfonyl-amino]-5-methoxy-benzofuran-3-carboxylic acid methylamide] had a negative-log IC50 (pIC50) of 6.31.

In turn, `CNC(=O)c1c(-c2ccc(Nc3ccc(F)cc3)nc2)oc2cc(N(CCO)S(C)(=O)=O)c(OC)cc12` [Compound I-126, 2-[6-(4-Fluoro-phenylamino)-pyridin-3-yl]-6-[(2-hydroxy-ethyl)-methanesulfonyl-amino]-5-methoxy-benzofuran-3-carboxylic acid methylamide] gave a pIC50 of 6.33.

In turn, `CNC(=O)c1c(-c2ccc(Oc3ccccn3)cc2)oc2cc(N(CCO)S(C)(=O)=O)c(OC)cc12` [Compound I-127, 6-[(2-Hydroxy-ethyl)-methanesulfonyl-amino]-5-methoxy-2-[4-(pyridin-2-yloxy)-phenyl]-benzofuran-3-carboxylic acid methylamide] had a pIC50 of 6.21.

(Values after US8071797B2 (priority 2008, dated 2011).)
